Like-named read-outs stand apart in the source and are kept apart here.
What was measured:
Type in all cases: cell-based
[1] = molecular target: EGFR(D770_N771insSVD) expressing Ba/F3 stable cell line (Homo sapiens, UniProt P00533, DUP768-770, cells depend on it); test: Cellular proliferation (Alamar Blue) assay, EGFR D770_N771insSVD Ba/F3; conditions: 72 hr, read-out: D770 IC50
Experimental: (§1) • 1. EGFR(D770_N771insSVD) expressing Ba/F3 stable cell line • 2. EGFR (A767_dupASV) expressing Ba/F3 stable cell line • 3. A431 cells • 4. EGFR (H773insNPH) expressing Ba/F3 stable cell line • 5. HER2 (A775_G776insYVMA) expressing Ba/F3 stable cell line Assay Procedure: • 1. Seed cells at 5000 for A431 and 15,000 cells for Ba/F3 in 100 μL/well in complete media (for A431: DMEM with […] and for Ba/F3 cells: RPMI with 10% FBS) in 96-well tissue culture plate. Leave outer wells without cells for background measurements. Incubate at 37 degree Celsius in […] humidified incubator for 16-18 hours. • 2. Add 0.025 ml of 5× concentration compound dilution or DMSO control. Final compound concentration range is 10-0.0005 μM prepared in 3-fold serial dilutions. Incubate for 72 hr at 37 degree Celsius in […] humidified incubator. • 3. Add 0.0125 ml Alamar Blue™ reagent to each well with multi-channel pipette and tap gently on each side of the plate to mix. Incubate for 3 hours at 37 degree Celsius in 5% CO2 humidified incubator. • 4. […] Data analysis was performed using XLfit 5.5.0.5.

[2] = molecular target: EGFR (A767_dupASV) expressing Ba/F3 stable cell line (Homo sapiens, UniProt P00533, DUP767-769, cells depend on it); test: Cellular proliferation (Alamar Blue) assay, EGFR A767_dupASV Ba/F3; conditions: 72 hr, read-out: A767 IC50
Chain of EGFR (A767_dupASV) expressing Ba/F3 stable cell line (P00533 with tags, fused parts or gaps DUP767-769): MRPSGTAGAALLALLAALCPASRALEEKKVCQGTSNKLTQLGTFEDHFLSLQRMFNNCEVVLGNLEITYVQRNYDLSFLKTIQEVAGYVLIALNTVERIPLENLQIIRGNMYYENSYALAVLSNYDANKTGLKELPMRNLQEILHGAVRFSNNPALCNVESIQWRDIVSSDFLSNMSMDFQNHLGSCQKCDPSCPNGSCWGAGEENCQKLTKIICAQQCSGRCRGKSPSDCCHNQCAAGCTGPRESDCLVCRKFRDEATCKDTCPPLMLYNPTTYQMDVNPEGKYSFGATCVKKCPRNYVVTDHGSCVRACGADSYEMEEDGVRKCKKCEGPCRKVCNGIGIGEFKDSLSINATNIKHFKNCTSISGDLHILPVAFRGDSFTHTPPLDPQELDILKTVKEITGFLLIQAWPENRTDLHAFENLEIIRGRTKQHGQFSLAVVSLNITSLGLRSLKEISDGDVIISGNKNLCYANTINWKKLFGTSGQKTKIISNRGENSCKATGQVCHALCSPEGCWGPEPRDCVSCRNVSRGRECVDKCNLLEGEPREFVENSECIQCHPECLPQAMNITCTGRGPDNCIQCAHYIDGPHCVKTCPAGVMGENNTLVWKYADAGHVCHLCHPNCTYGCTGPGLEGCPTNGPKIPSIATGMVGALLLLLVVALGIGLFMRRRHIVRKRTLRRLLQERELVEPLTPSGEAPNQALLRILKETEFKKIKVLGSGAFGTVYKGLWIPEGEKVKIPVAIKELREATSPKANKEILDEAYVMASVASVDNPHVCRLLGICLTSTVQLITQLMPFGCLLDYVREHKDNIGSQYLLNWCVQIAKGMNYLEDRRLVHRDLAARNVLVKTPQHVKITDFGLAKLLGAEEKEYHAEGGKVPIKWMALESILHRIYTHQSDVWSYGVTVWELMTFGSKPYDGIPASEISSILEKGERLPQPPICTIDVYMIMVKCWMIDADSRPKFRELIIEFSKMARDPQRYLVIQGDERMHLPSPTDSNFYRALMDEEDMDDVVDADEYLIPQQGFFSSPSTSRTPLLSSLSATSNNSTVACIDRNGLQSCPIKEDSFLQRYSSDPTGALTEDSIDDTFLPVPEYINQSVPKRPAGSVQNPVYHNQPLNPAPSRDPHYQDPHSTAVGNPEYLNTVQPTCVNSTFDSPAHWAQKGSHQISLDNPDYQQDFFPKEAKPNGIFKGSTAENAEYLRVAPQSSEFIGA
Experimental: as §1

[3] = system: A431 cells; test: Cellular proliferation (Alamar Blue) assay, A431
Experimental: as §1

[4] = Homo sapiens, A-431; A431 cells, Alamar Blue, 72 hr; read-out: A431 IC50
[5] = Homo sapiens, A-431; A431 cells, 72 hr, Alamar Blue; read-out: A431 IC50

Chain of EGFR(D770_N771insSVD) expressing Ba/F3 stable cell line (P00533 with tags, fused parts or gaps DUP768-770): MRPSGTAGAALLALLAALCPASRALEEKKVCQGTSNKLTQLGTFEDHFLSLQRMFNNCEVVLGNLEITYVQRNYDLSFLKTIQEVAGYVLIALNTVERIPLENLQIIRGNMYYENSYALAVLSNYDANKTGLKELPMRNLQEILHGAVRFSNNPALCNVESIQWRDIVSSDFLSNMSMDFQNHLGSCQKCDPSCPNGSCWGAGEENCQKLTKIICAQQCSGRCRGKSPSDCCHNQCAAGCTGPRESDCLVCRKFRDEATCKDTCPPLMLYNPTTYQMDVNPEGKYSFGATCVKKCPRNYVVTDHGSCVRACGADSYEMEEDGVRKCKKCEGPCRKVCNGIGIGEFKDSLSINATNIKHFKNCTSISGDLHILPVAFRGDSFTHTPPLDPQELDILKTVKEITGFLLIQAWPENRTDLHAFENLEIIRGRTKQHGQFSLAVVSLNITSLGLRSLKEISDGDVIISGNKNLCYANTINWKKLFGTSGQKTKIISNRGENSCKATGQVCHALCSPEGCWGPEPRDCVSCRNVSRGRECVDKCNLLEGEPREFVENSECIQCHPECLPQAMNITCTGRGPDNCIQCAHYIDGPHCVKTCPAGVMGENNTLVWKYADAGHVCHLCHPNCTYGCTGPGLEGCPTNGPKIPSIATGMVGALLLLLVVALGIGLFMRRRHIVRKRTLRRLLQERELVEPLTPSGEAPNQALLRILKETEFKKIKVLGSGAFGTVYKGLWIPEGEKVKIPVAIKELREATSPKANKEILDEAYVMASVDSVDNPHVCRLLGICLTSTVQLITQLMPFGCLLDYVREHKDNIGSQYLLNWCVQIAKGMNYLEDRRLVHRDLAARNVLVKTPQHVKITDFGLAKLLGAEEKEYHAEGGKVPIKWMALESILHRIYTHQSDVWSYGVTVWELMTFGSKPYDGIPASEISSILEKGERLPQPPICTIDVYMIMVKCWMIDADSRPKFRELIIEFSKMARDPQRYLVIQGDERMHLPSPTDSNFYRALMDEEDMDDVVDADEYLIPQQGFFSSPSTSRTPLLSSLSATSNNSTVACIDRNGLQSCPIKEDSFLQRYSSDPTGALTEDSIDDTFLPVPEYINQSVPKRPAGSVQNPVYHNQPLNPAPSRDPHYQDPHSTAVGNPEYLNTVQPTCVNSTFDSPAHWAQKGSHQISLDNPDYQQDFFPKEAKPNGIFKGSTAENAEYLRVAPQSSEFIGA

SMILES | GI50 [1] [nM] | GI50 [2] [nM] | IC50 [3, 4] [nM] | IC50 [3, 5] [nM]
C=CC(=O)Nc1ccc(F)c(Nc2nc(NC3CCC3)ncc2-c2ccc(C(F)(F)F)cc2)c1 [Compound 181, N-(3-((2-(cyclobutylamino)-5-(4-(trifluoromethyl)phenyl)pyrimidin-4-yl)amino)-4-fluorophenyl)acrylamide] | > 10000 | > 10000 | > 10000 | –
C=CC(=O)Nc1cccc(Oc2nc(Nc3cnn(C)c3)ncc2C2=CCN(C)CC2)c1 [Compound 190, N-(3-((5-(1-methyl-1,2,3,6-tetrahydropyridin-4-yl)-2-((1-methyl-1H-pyrazol-4-yl)amino)pyrimidin-4-yl)oxy)phenyl)acrylamide] | 8860 | 9040 | 6760 | –
C=CC(=O)Nc1cccc(Oc2nc(Nc3ccc(N4CCN(C)CC4)cc3OC)ncc2-c2ccc(C(F)(F)F)cc2)c1 [Compound 191, N-(3-((2-((2-methoxy-4-(4-methylpiperazin-1-yl)phenyl)amino)-5-(4-(trifluoromethyl)phenyl)pyrimidin-4-yl)oxy)phenyl)acrylamide] | > 10000 | 9650 | 898 | –
C=CC(=O)Nc1cccc(Nc2nc(Nc3cnn(C)c3)ncc2-c2ccc(C(F)(F)F)cc2)n1 [Compound 197, N-(6-((2-((1-methyl-1H-pyrazol-4-yl)amino)-5-(4-(trifluoromethyl)phenyl)pyrimidin-4-yl)amino)pyridin-2-yl)acrylamide] | 395 | 448 | 373 | –
C=CC(=O)Nc1cc(Nc2nc(Nc3cnn(C)c3)ncc2-c2ccc(C(F)(F)F)cc2)ccc1N(C)CCN(C)C [Compound 199, N-(2-{[2-(dimethylamino)ethyl](methyl)amino}-5-({2-[(1-methyl-1H-pyrazol-4-yl)amino]-5-[4-(trifluoromethyl)phenyl]pyrimidin-4-yl}amino)phenyl)prop-2-enamide] | 239 | 704 | – | 716
C=CC(=O)Nc1cc(Nc2nc(Nc3cnn(C)c3)ncc2-c2ccc(C(F)(F)F)cc2)ccn1 [Compound 200, N-(4-((2-((1-methyl-1H-pyrazol-4-yl)amino)-5-(4-(trifluoromethyl)phenyl)pyrimidin-4-yl)amino)pyridin-2-yl)acrylamide] | 6020 | 2760 | – | 1280
C=CC(=O)Nc1ccc(F)c(Nc2nc(Nc3cc(C)sn3)ncc2-c2ccc(C(F)(F)F)cc2)c1 [Compound 212, N-(4-fluoro-3-((2-((5-methylisothiazol-3-yl)amino)-5-(4-(trifluoromethyl)phenyl)pyrimidin-4-yl)amino)phenyl)acrylamide] | 884 | 1570 | – | > 10000
C=CC(=O)Nc1ccc(F)c(Nc2nc(Nc3cn(C)cn3)ncc2-c2ccc(C(F)(F)F)cc2)c1 [Compound 214, N-(4-fluoro-3-((2-((1-methyl-1H-imidazol-4-yl)amino)-5-(4-(trifluoromethyl)phenyl)pyrimidin-4-yl)amino)phenyl)acrylamide] | 308 | 543 | – | > 10000
C=CC(=O)Nc1ccc(F)c(Nc2nc(Nc3nccs3)ncc2-c2ccc(C(F)(F)F)cc2)c1 [Compound 215, N-(4-fluoro-3-((2-(thiazol-2-ylamino)-5-(4-(trifluoromethyl)phenyl)pyrimidin-4-yl)amino)phenyl)acrylamide] | 991 | > 10000 | – | 2270
C=CC(=O)Nc1ccc(F)c(Nc2nc(Nc3csc(C)c3)ncc2-c2ccc(C(F)(F)F)cc2)c1 [Compound 217, N-(4-fluoro-3-((2-((5-methylthiophen-3-yl)amino)-5-(4-(trifluoromethyl)phenyl)pyrimidin-4-yl)amino)phenyl)acrylamide] | 916 | 1130 | – | > 10000
C=CC(=O)Nc1ccc(F)c(Nc2nc(Nc3cccc(CN(C)C)c3)ncc2-c2ccc(C(F)(F)F)cc2)c1 [Compound 218, N-(3-((2-((3-((dimethylamino)methyl)phenyl)amino)-5-(4-(trifluoromethyl)phenyl)pyrimidin-4-yl)amino)-4-fluorophenyl)acrylamide] | 1690 | 8470 | – | 1580

More lines, now with the values ahead:

GI50 [1] [nM] | GI50 [2] [nM] | IC50 [3, 4] [nM] | IC50 [3, 5] [nM] | SMILES
9980 | 7470 | 6110 | – | C=CC(=O)Nc1cccc(Oc2cc(Nc3cnn(C)c3)ncc2-c2ccc(C(F)(F)F)cc2)c1 [Compound 182, N-[3-({2-[(1-methyl-1H-pyrazol-4-yl)amino]-5-[4-(trifluoromethyl)phenyl]pyridin-4-yl}oxy)phenyl]prop-2-enamide; trifluoroacetic acid]
320 | 286 | 292 | – | C=CC(=O)Nc1cccc(Oc2nc(Nc3cnn(C)c3)ncc2-c2cncc(C)c2)c1 [Compound 183, N-[3-({2-[(1-methyl-1H-pyrazol-4-yl)amino]-5-(5-methylpyridin-3-yl)pyrimidin-4-yl}oxy)phenyl]prop-2-enamide]
> 10000 | > 10000 | 8130 | – | C=CC(=O)Nc1cccc(Oc2nc(Nc3ccccc3Cl)ncc2-c2ccc(C(F)(F)F)cc2)c1 [Compound 189, N-(3-((2-((2-chlorophenyl)amino)-5-(4-(trifluoromethyl)phenyl)pyrimidin-4-yl)oxy)phenyl)acrylamide]
267 | 241 | 258 | – | C=CC(=O)Nc1cccc(Oc2nc(Nc3cnn(C)c3)ncc2C2=CCOCC2)c1 [Compound 192, N-(3-((5-(3,6-dihydro-2H-pyran-4-yl)-2-((1-methyl-1H-pyrazol-4-yl)amino)pyrimidin-4-yl)oxy)phenyl)acrylamide]
> 10000 | > 10000 | 8760 | – | C=CC(=O)Nc1cccc(Oc2nc(Nc3ccccc3OC)ncc2-c2ccc(C(F)(F)F)cc2)c1 [Compound 193, N-[3-({2-[(2-methoxyphenyl)amino]-5-[4-(trifluoromethyl)phenyl]pyrimidin-4-yl}oxy)phenyl]prop-2-enamide]
> 10000 | > 10000 | > 10000 | – | C=CC(=O)Nc1cccc(Oc2nc(NC3CC3)ncc2-c2ccc(C(F)(F)F)cc2)c1 [Compound 194, N-(3-((2-(cyclopropylamino)-5-(4-(trifluoromethyl)phenyl)pyrimidin-4-yl)oxy)phenyl)acrylamide]
3210 | 8470 | 7550 | – | C=CC(=O)Nc1ccnc(Nc2nc(Nc3cnn(C)c3)ncc2-c2ccc(C(F)(F)F)cc2)c1 [Compound 196, N-(2-((2-((1-methyl-1H-pyrazol-4-yl)amino)-5-(4-(trifluoromethyl)phenyl)pyrimidin-4-yl)amino)pyridin-4-yl)acrylamide]
1270 | 2640 | – | 2140 | C=CC(=O)Nc1cc(Nc2nc(Nc3cnn(C)c3)ncc2-c2ccc(C(F)(F)F)cc2)c(F)cn1 [Compound 198, N-[5-fluoro-4-({2-[(1-methyl-1H-pyrazol-4-yl)amino]-5-[4-(trifluoromethyl)phenyl]pyrimidin-4-yl}amino)pyridin-2-yl]prop-2-enamide; trifluoroacetic acid]
32 | 31 | – | 49 | C=CC(=O)Nc1cc(F)cc(Nc2nc(Nc3cnn(C)c3)ncc2-c2ccc(Br)cc2)c1 [Compound 207, N-(3-((5-(4-bromophenyl)-2-((1-methyl-1H-pyrazol-4-yl)amino)pyrimidin-4-yl)amino)-5-fluorophenyl)acrylamide]
7970 | 9860 | – | 5410 | C=CC(=O)Nc1cccc(-n2c3cc(C(F)(F)F)ccc3c3cnc(Nc4cnn(C)c4)nc32)c1 [Compound 209]
404 | 667 | – | 1600 | C=CC(=O)Nc1ccc(F)c(Nc2nc(Nc3cc(C)ns3)ncc2-c2ccc(C(F)(F)F)cc2)c1 [Compound 211, N-[4-fluoro-3-({2-[(3-methyl-1,2-thiazol-5-yl)amino]-5-[4-(trifluoromethyl)phenyl]pyrimidin-4-yl}amino)phenyl]prop-2-enamide]
1290 | 3680 | – | 1820 | C=CC(=O)Nc1ccc(F)c(Nc2nc(Nc3nc(C)cs3)ncc2-c2ccc(C(F)(F)F)cc2)c1 [Compound 213, N-(4-fluoro-3-((2-((4-methylthiazol-2-yl)amino)-5-(4-(trifluoromethyl)phenyl)pyrimidin-4-yl)amino)phenyl)acrylamide]
110 | 211 | – | 133 | C=CC(=O)Nc1ccc(F)c(Nc2nc(Nc3cnn(C4CCOCC4)c3)ncc2-c2ccc(C(F)(F)F)cc2)c1 [Compound 220, N-(4-fluoro-3-((2-((1-(tetrahydro-2H-pyran-4-yl)-1H-pyrazol-4-yl)amino)-5-(4-(trifluoromethyl)phenyl)pyrimidin-4-yl)amino)phenyl)acrylamide]

Source: US12686673B2 (Blueprint Medicines Corporation, priority 2020, dated 2026)
